Test results from the METLIN SMRT retention time set (Domingo-Almenara et al. 2019).

Experiment: gradient 5% acetonitrile 3 min, to 50% in 2 min, to 85% in 15 min, held 3 min, 100 µL/min
Settings: column: Zorbax Extend-C18 2.1 x 50 mm; eluents: water / acetonitrile, 0.1% formic acid
Summary of the method: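 Mixtures of ~100 pure standards were chromatographed on a Zorbax Extend-C18 column (2.1 × 50 mm, 1.8 μm) at 100 μL/min using water and acetonitrile, each with 0.1% formic acid. Detection used a quadrupole time-of-flight mass spectrometer in positive and negative ionization mode, and data collection spanned 3 months. Retention time was obtained from adduct peaks picked computationally and each checked manually.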

Compound	RP-LC retention time [s]
COc1ccc(CC(=O)N2CCN(c3cc(C)n4c(C)nnc4n3)CC2)cc1Cl	614
COc1ccc(-c2nc(Cn3ccn4nc(-c5ccc6c(c5)OCO6)cc4c3=O)c(C)o2)cc1	1100
CCOC(=O)Oc1c(OC)cc(C(=O)O[C@@H]2C[C@@H]3CN4CCc5c([nH]c6cc(OC)ccc56)[C@H]4C[C@@H]3[C@H](C(=O)OC)[C@H]2OC)cc1OC	935
CCOc1ccc(NC(=O)Cn2ccc3ccc(-c4nnc(C)o4)cc32)cc1	804
O=C(NC1CCCC1)c1cn(-c2cc(-c3nc(C4CC4)no3)ccn2)cn1	867
Cc1noc(-c2ccc(-n3ncc(C(=O)NC4CCCCC4)c3C)nc2)n1	737
Cc1cc2nn(CC(=O)N3CCC(C)CC3)c(=O)n2c(-c2ccc(F)cc2)n1	816
COc1cc(NS(=O)(=O)c2ccc(Nc3nc(-c4ccc(C)c(C)c4)cs3)cc2)nc(OC)n1	1190
CNC(=O)c1cc(C(=O)c2ccc3nc(Nc4ccc(Cl)cc4)[nH]c3c2)ccn1	669
CCOc1ccc(-c2nc(-c3ccc4c(c3)ncn4CCC(=O)N3CCCC3)no2)cc1	825
CCn1cc(CC(=O)NC2CCN(Cc3ccccc3)CC2)c2cccnc21	564
COc1ccc(NC2=NS(=O)(=O)C(c3ccc(F)cc3)=C2C)c(OC)c1	929
COc1cc(CNC(=O)c2nnc(-c3ccc(S(=O)(=O)N(C)C)cc3)o2)cc(OC)c1	846
CCOC(=O)c1c(S(=O)(=O)N2CCC(C(=O)NC3CCCCC3)CC2)c(C)n(C)c1C	828
CCc1noc(NC(C)=O)c1-c1ccc(OC)c(S(=O)(=O)NCc2ccccc2OC)c1	791
Cc1ccc(Sc2nccnc2N2CCC(C(=O)NCc3ccccc3C)CC2)cc1	1150
CCOc1ccccc1NC(=O)N1CCN(Cc2nc3cc(Cl)ccc3o2)CC1	867
CCOCCCNC(=O)c1nc(Nc2ccc(F)cc2)c2ccccc2n1	746

Compound	RP-LC retention time [s]
O=S(=O)(c1cccn2c(SCc3cccc(Cl)c3)nnc12)N1CCCC1	860
Cc1nc2cccnc2n1CC1CCCN(S(=O)(=O)c2ccc(C(C)C)cc2)C1 (stereo not given)	817
OCc1nc2ccccc2n1C/C=C/c1ccccc1	579
COc1cc(NC(=O)N(C)CCc2noc(COc3ccc(F)cc3)n2)cc(OC)c1	874
O=C(COc1ccccc1)Nc1nc(-c2ccc(Cl)cc2)cs1	1130
CC(C)c1ccc(-c2ccnc3c(C(=O)N4CCN(c5ccccn5)CC4)cnn23)cc1	710
Cc1ccc(NC(=O)Cn2nc3c(Oc4cc(C)cc(C)c4)nccn3c2=O)cc1	871
Cc1sc2ccn(Cc3ccc(F)cc3)c(=O)c2c1C(=O)NCC1CCCO1 (stereo not given)	775
Cc1ccccc1Cn1cc(-c2ccncc2)cc1C(=O)N1CCN(C2CCCCC2)CC1	586
CCN(CC)C(C)CN1c2ccccc2Sc2ccccc21 (stereo not given)	813
COc1cccc(-n2c(=O)c3sccc3n(Cc3nc(-c4ccccc4C)no3)c2=O)c1	1000
CCCc1nnc(NC(=O)C2CCN(C(=O)c3ccc(F)cc3)CC2)s1	721
Cc1ccc(N2CCC(NC(=O)C(C)(C)C)C2=O)cc1C (stereo not given)	802
Cc1cc2c(N3CCCC(C(=O)N4CCN(c5ccc(F)cc5)CC4)C3)nccc2s1 (stereo not given)	726
CCCCNC(=O)Cn1c(N)nc(CC)cc1=O	579
CC1(CNC(=O)c2cccc(Br)c2)CCOCC1	797
O=C(Cc1cccc(F)c1)NC1CCN(c2ccccc2)C1=O (stereo not given)	770
